pIC50: −log10 of the molar value. Where a SMILES comes first, the peptide text is derived from it. Bridges are numbered along the chain shown (N, C = ends). [ ]: non-standard residue; d: D form. ξ: configuration not given here. Thr(3ξ) = CC(O)[C@H](N)C(=O)O; hLys = NCCCCC[C@H](N)C(=O)O
Tests used:
[1] = biological target: T1, Serine protease 1 (Bos taurus, UniProt P00760); assay: Protease Inhibition Assays; conditions: 37 °C
T1 sequence (P00760 whole entry): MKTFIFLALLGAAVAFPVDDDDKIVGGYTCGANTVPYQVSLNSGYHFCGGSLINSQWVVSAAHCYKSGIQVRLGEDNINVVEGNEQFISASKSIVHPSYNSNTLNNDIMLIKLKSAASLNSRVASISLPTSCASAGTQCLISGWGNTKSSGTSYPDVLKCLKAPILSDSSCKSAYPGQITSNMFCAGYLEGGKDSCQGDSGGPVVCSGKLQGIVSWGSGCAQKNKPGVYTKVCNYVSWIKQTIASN
Protocol: (§1) The inhibition assays were performed in 96-well microtiter plates as follows: 30 uL of the enzyme solution (trypsin [100 ug/mL] or elastase [1.5 U/mL]) and 60 uL of the buffer (50 mM Tris-HCl, 20 mM CaCl2 at pH 7.5) were pipetted into a series of six wells. A total of 10 uL of a 2000 uM peptide solution (microviridin variant) was then added to well 1 and serially diluted up to well 5; well 6 was used as the control. After completing the serial dilution of the sample, 10 uL was taken from well 5 and discarded to maintain the same volume in all wells. The plates were then incubated for 5 min at 37 °C, and subsequently 90 uL of the substrate solution (trypsin assay, N-benzoyl-DL-arginine-4-nitroanilide hydrochloride (BAPNA) [2.17 mg mL-1]; elastase assay, succinyl-Ala-Ala-Ala-p-nitroanilide (Suc-ALA3-pNA) [1 mg mL-1]) was added to each well. The enzymatic activity was measured spectrophotometrically (Varioscan Flash, Thermo Scientific) at 410 nm after incubation at 37 °C for 15 m

[2] = biological target: Chymotrypsin-like elastase family member 1 (Bos taurus, UniProt Q28153); assay: Protease Inhibition Assays; conditions: 37 °C
Chymotrypsin-like elastase family member 1, sequence (Q28153 whole entry): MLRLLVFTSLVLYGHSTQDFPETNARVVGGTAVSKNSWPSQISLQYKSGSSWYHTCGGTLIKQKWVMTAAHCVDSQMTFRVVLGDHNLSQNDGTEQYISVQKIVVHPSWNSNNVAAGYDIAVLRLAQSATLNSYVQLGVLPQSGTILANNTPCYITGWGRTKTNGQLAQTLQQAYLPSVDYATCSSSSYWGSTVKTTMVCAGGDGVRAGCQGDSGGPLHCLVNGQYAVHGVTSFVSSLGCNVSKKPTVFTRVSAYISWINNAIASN
Protocol: as §1

| Compound | pIC50 [1] | pIC50 [2] |
| --- | --- | --- |
| CC(C)[C@H](NC(=O)[C@@H](N)[C@@H](C)O)C(=O)N[C@@H]1C(=O)N[C@@H](CCCNC(=N)N)C(=O)N[C@H]2CCCCNC(=O)C[C@@H](C(=O)N[C@@H](Cc3ccc(O)cc3)C(=O)O)NC(=O)[C@@H]3CCC(=O)OC[C@H](NC(=O)[C@@H]4CCCN4C(=O)[C@H](Cc4ccc(O)cc4)NC2=O)C(=O)N[C@@H](CC(=O)OC1C)C(=O)N[C@@H](Cc1c[nH]c2ccccc12)C(=O)N3 (some centres undefined) [MdnA3] (H-TV[Thr(3ξ)]RKYPSDWEDY-OH; ester 3-9, 8-11; lactam 5-12) | 7.55 |  |
| CC(C)[C@H](NC(=O)[C@@H](N)Cc1ccc(O)cc1)C(=O)N[C@@H]1C(=O)N[C@@H](CCCCCN)C(=O)N[C@H]2CCCCNC(=O)CC[C@@H](C(=O)N[C@@H](Cc3ccc(O)cc3)C(=O)O)NC(=O)[C@@H]3CCC(=O)OC[C@H](NC(=O)[C@@H]4CCCN4C(=O)[C@H](Cc4ccc(O)cc4)NC2=O)C(=O)N[C@@H](CC(=O)OC1C)C(=O)N[C@@H](Cc1c[nH]c2ccccc12)C(=O)N3 (some centres undefined) [MdnA6] (H-YV[Thr(3ξ)][hLys]KYPSDWEEY-OH; ester 3-9, 8-11; lactam 5-12) | 7.67 |  |
| CC(C)C[C@@H]1NC(=O)[C@@H](NC(=O)[C@H](CC(N)=O)NC(=O)[C@H](CCC(N)=O)NC(=O)[C@@H](N)Cc2ccc(O)cc2)C(C)OC(=O)C[C@@H]2NC(=O)[C@@H]3COC(=O)CC[C@H](NC(=O)[C@H](Cc4c[nH]c5ccccc45)NC2=O)C(=O)N[C@H](C(=O)N[C@@H](Cc2ccc(O)cc2)C(=O)O)CCC(=O)NCCCC[C@H](NC1=O)C(=O)N[C@@H](Cc1ccc(O)cc1)C(=O)N1CCC[C@H]1C(=O)N3 (some centres undefined) [MdnA7] (H-YQN[Thr(3ξ)]LKYPSDWEEY-OH; ester 4-10, 9-12; lactam 6-13) |  | 5.98 |
| CC(C)C[C@@H]1NC(=O)[C@@H](NC(=O)[C@H](C)N)C(C)OC(=O)C[C@@H]2NC(=O)[C@@H]3COC(=O)CC[C@H](NC(=O)[C@H](Cc4c[nH]c5ccccc45)NC2=O)C(=O)N[C@H](C(=O)N[C@@H](Cc2ccc(O)cc2)C(=O)O)CCC(=O)NCCCC[C@H](NC1=O)C(=O)N[C@@H](Cc1ccc(O)cc1)C(=O)N1CCC[C@H]1C(=O)N3 (some centres undefined) [MdnA8] (H-A[Thr(3ξ)]LKYPSDWEEY-OH; ester 2-8, 7-10; lactam 4-11) |  | 4.66 |
